Results taken from US12568967B2, “Compositions comprising pyridine carboxylate herbicides with synthetic auxin herbicides or auxin transport inhibitors” (priority 2018, dated 2026).
Read-outs that look alike come from different tables or passages of the source.

Columns and labels:
[1] = tested on: Viola arvensis (field violet, VIOAR); experiment: Greenhouse postemergence trial VIOAR; assay type: in vivo; conditions: for % visual injury, Obs: applied alone; for % visual injury: c1-3 Compound A 7.5/10/15
Procedure: (§1) Seeds of the desired test plant species were planted in a 90:10% v/v (volume/volume) mixture of PRO-MIX® BX (Premier Tech Horticulture, Quakertown, PA, USA) and PROFILE® GREENS GRADE™ (Profile Products LLC, Buffalo Grove, IL, USA) planting mixture, which typically has a pH of 5.2 to 6.2 and an organic matter content of at least 50 percent, in plastic pots with a surface area of 103.2 square centimeters (cm^2). […] The plants were grown for 7-36 days (d) in a greenhouse with an approximate 14-hour (h) photo-period which was maintained at about 23° C. during the day and 22° C. during the night. Nutrients and water were added on a regular basis and supplemental lighting was provided with overhead metal halide 1000-Watt lamps as necessary. The plants were employed for testing when they reached the second or third true leaf stage.
(§2) Emulsifiable concentrates of each of each pyridine carboxylate herbicide (Compound A or Compound B) were prepared at 100 grams acid equivalent per liter (g ae/L). The emulsifiable concentrates also included a safener, cloquintocet-mexyl, at 120 grams active ingredient per liter (g ai/L), unless otherwise noted below. An aliquot of each emulsifiable concentrate was placed in a 25 mL glass vial and diluted with an aqueous mixture of 1.25% (v/v) ACTIROB® B esterified rapeseed oil (Bayer Crop Science, Research Triangle Park, NC, USA) or MSO® Concentrate with LECI-TECH® methylated soybean oil (Loveland Products, Loveland, CO, USA) to obtain concentrated stock solutions at the highest application rate for each herbicide, based upon a 12 milliliter (mL) application volume at a rate of 187 liters per hectare (L/ha). The concentrated stock solutions were further diluted with an aqueous mixture of 1.25% v/v ACTIROB® B or MSO® Concentrate with LECI-TECH® to obtain stock solutions at reduced application rates for each herbicide. Spray solutions of the herbicide combinations (Compound A or Compound B plus synthetic auxin herbicide or auxin transport inhibitor) were prepared by adding weighed amounts or aliquots of the synthetic auxin herbicide or auxin transport inhibitor to the stock solutions of Compound A or Compound B to form 12-mL spray solutions in two-way combinations.
(§3) The spray solutions were applied to the plant material with an overhead Mandel track sprayer equipped with 8002E nozzles calibrated to deliver 187 L/ha over an application area of 0.503 square meters (m^2) at a spray height of 18 inches (43 centimeters (cm)) above the average plant canopy. Control plants were sprayed in the same manner with the solvent blank. All pyridine carboxylate herbicide (component a) application rates are given as “g ae/ha” and all synthetic auxin herbicide or auxin transport inhibitor (component b) application rates are given as “g ai/ha.”
(§4) The treated plants and control plants were placed in a greenhouse as described above and watered by sub-irrigation to prevent wash-off of the test compounds. After 20-22 d, the condition of the test plants as compared with that of the control plants was determined visually and scored on a scale of 0 to 100 percent where 0 corresponds to no injury and 100 corresponds to complete kill.

[2] = tested on: Brassica napus (winter rape, BRSNW); experiment: Greenhouse postemergence trial BRSNW; assay type: in vivo; conditions: for plant injury at 10 g/ha / plant injury at 15 g/ha: Brassica napus, post-emergence
Procedure: as §1, §2, §3, §4

[3] = tested on: Triticum aestivum (winter wheat, TRZAW); experiment: Greenhouse postemergence crop phytotoxicity TRZAW; assay type: in vivo; conditions: for % visual injury Obs / visual injury, Obs / % visual injury, Obs: TRZAW; for % visual injury, Obs: applied alone; for % visual injury (crop phytotoxicity): c1-3 Compound A 7.5/10/15
Procedure: as §1, §2, §3, §4

[4] = tested on: Hordeum vulgare (winter barley, HORVW); experiment: Greenhouse postemergence crop phytotoxicity HORVW; assay type: in vivo; conditions: for % visual injury Obs / visual injury, Obs / % visual injury, Obs: HORVW; for % visual injury, Obs: applied alone; for % visual injury (crop phytotoxicity): c1-3 Compound A 7.5/10/15
[5] = tested on: Oryza sativa (common rice, ORYSA); experiment: Greenhouse postemergence trial ORYSA; assay type: in vivo; conditions: Compound A 10 g/ha
Procedure: as §1
Emulsifiable concentrates of each of each pyridine carboxylate herbicide (Compound A or Compound B) were prepared at 100 grams acid equivalent per liter (g ae/L). […]
as §4

[6] = tested on: Viola tricolor (wild pansy, VIOTR); experiment: Greenhouse postemergence trial VIOTR;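 further: greenhouse plants sprayed at second to third true leaf stage, injury rated visually after 20-22 d against solvent-blank sprayed controls, 0 meaning no injury and 100 complete kill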
[7] = tested on: Lamium purpureum (purple deadnettle, LAMPU); experiment: Greenhouse postemergence trial LAMPU; conditions: for % visual injury, Obs: applied alone
[8] = c4-5 Fluroxypyr-MHE 100/140, c6-8, c9-11 A 7.5/10/15 + Fluroxypyr-MHE 100, 140 g/ha
[9] = c4-6 Clopyralid 30/60/120, c7-9, c10-12, c13-15 A 7.5/10/15 + Clopyralid 30, 60, 120 g/ha
[10] = c4 Aminopyralid 5, c5-7 A 7.5/10/15 + Aminopyralid 5 g/ha
[11] = c4 Halauxifen-methyl 6, c5-7 A 7.5/10/15 + Halauxifen-methyl 6 g/ha
[12] = Compound A 10 g/ha, without safener
[13] = Viola tricolor, post-emergence, read-out: % visual injury Obs
[14] = Lamium purpureum, post-emergence, read-out: % visual injury Obs

## N#CCOC(=O)c1nc(-c2ccc3cc[nH]c3c2F)c(F)c(N)c1Cl [Compound A, cyanomethyl 4-amino-3-chloro-5-fluoro-6-(7-fluoro-1H-indol-6-yl)pyridine-2-carboxylate]
[1]; VIOAR, 10 g/ha
  % visual injury, Obs: 10%
[1]; VIOAR, 15 g/ha
  % visual injury, Obs: 15%
[1]; Viola arvensis, post-emergence, VIOAR, Compound A 7.5 g/ha, read-out: % visual injury Obs
  pest or weed control at […]: 10%
[1]; Viola arvensis, post-emergence, VIOAR, Compound A 10 g/ha, read-out: % visual injury Obs
  pest or weed control at 10 g/ha: 10%
[1]; Viola arvensis, post-emergence, VIOAR, Compound A 15 g/ha, read-out: % visual injury Obs
  pest or weed control at 15 g/ha: 15%
[1]; [8]
  % visual injury: 5%
[1]; [9]
  % visual injury: 5%
[1]; [10]
  % visual injury: 5%
[1]; [11]
  % visual injury: 5%
[2]; BRSNW, Compound A 10 g/ha alone
  visual injury, Obs: 65%
[2]; BRSNW, Compound A 15 g/ha alone
  visual injury, Obs: 80%
[2]; BRSNW, alone 10 g/ha
  % visual injury (Obs): 68%
[2]; BRSNW, Compound A 10 g/ha, read-out: % visual injury Obs
  plant injury at 10 g/ha: 65%
[2]; BRSNW, Compound A 10 g/ha, read-out: % visual injury, Obs
  plant injury at 10 g/ha: 68%
[2]; BRSNW, Compound A 15 g/ha, read-out: % visual injury Obs
  plant injury at 15 g/ha: 80%
[2]; BRSNW, alone, 10 g/ha, read-out: % visual injury Obs
  plant injury at 10 g/ha: 65%
[2]; BRSNW, alone, 15 g/ha, read-out: % visual injury Obs
  plant injury at 15 g/ha: 80%
[2]; BRSNW, applied alone, 15 g/ha, read-out: % visual injury, Obs
  plant injury at 15 g/ha: 80%
[2]; [12]
  BRSNW Obs (% visual injury): 65%
[3]; Compound A 10 g/ha
  % visual injury Obs: 0%
[3]; Compound A 10 g/ha alone
  visual injury, Obs: 0%
[3]; Compound A 15 g/ha
  % visual injury Obs: 0%
[3]; Compound A 15 g/ha alone
  visual injury, Obs: 0%
[3]; alone, 10 g/ha
  % visual injury Obs: 0%
[3]; alone, 15 g/ha
  % visual injury Obs: 0%
[3]; 10 g/ha
  % visual injury, Obs: 0%
[3]; 15 g/ha
  % visual injury, Obs: 0%
[3]; [8]
  % visual injury (crop phytotoxicity): 0%
[3]; [9]
  % visual injury (crop phytotoxicity): 0%
[3]; [10]
  % visual injury (crop phytotoxicity): 0%
[3]; [11]
  % visual injury (crop phytotoxicity): 0%
[4]; Compound A 10 g/ha
  % visual injury Obs: 0%
[4]; Compound A 10 g/ha alone
  visual injury, Obs: 0%
[4]; Compound A 15 g/ha
  % visual injury Obs: 0%
[4]; Compound A 15 g/ha alone
  visual injury, Obs: 0%
[4]; alone, 10 g/ha
  % visual injury Obs: 0%
[4]; alone, 15 g/ha
  % visual injury Obs: 0%
[4]; 10 g/ha
  % visual injury, Obs: 0%
[4]; 15 g/ha
  % visual injury, Obs: 0%
[4]; [8]
  % visual injury (crop phytotoxicity): 0%
[4]; [9]
  % visual injury (crop phytotoxicity): 0%
[4]; [10]
  % visual injury (crop phytotoxicity): 0%
[4]; [11]
  % visual injury (crop phytotoxicity): 0%
[5]
  ORYSA Obs (% visual injury): 10%
[6]; Compound A 10 g/ha
  VIOTR Obs (% visual injury): 18%
[6]; [12]
  VIOTR Obs (% visual injury): 15%
[6]; VIOTR, Compound A 10 g/ha
  % visual injury Obs: 30%
  % visual injury, Obs: 15%
[6]; VIOTR, Compound A 10 g/ha alone
  visual injury, Obs: 30%
[6]; VIOTR, Compound A 15 g/ha alone
  visual injury, Obs: 50%
[6]; VIOTR, alone, 10 g/ha
  % visual injury (Obs): 23%
  % visual injury Obs: 30%
[6]; VIOTR, alone, 15 g/ha
  % visual injury Obs: 50%
[6]; VIOTR, applied alone, 10 g/ha
  % visual injury, Obs: 30%
[6]; VIOTR, applied alone, 15 g/ha
  % visual injury, Obs: 50%
[6]; [13]
  pest or weed control at 10 g/ha: 30%
  pest or weed control at 15 g/ha: 50%
[7]; LAMPU, Compound A 10 g/ha alone
  visual injury, Obs: 70%
[7]; LAMPU, Compound A 15 g/ha
  % visual injury Obs: 75%
[7]; LAMPU, Compound A 15 g/ha alone
  visual injury, Obs: 75%
[7]; LAMPU, alone 10 g/ha
  % visual injury (Obs): 90%
  % visual injury Obs: 70%
[7]; LAMPU, alone, 15 g/ha
  % visual injury Obs: 75%
[7]; LAMPU, 10 g/ha
  % visual injury, Obs: 70%
[7]; LAMPU, 15 g/ha
  % visual injury, Obs: 75%
[7]; [14]
  pest or weed control at 10 g/ha: 70%
  pest or weed control at 15 g/ha: 75%
